Data published in patent US8629144B2, “Polymorphic and hydrate forms, salts and process for preparing 6-{difluoro[6-(1-methyl-1H-pyrazol-4-yl)[1,2,4]triazolo[4,3-b]pyridazin-3-yl]methyl}quinoline” (Janssen Pharmaceutica NV, priority 2007, dated 2014).
Converted amounts (≈) assume the structure as drawn. Where two headings read alike, the source gives them in different places.

Experiments:
Format in all cases: physicochemical
[1] = Slurry conversion on mixtures of Form III and Form I (XRPD); design: key to Polymorphic composition (XRPD) after slurry: Form I; *: low amount of product; conditions: for Polymorphic composition (XRPD) after slurry: overnight
Procedure: 30 mg of mixture of Form III and Form I and 0.25 ml solvent (2-propanol; or ethanol/water (8/2, v/v)) were placed in a vial. For each solvent, 2 vials were prepared and stored each at different temperatures (RT, 70° C.) overnight. After storage, the slurry was spread on a paper filter, the solid fractions were collected and dried 2 hours at RT. The polymorphic composition was measured using XRPD.

[2] = Aqueous solubility of Forms I, III and hydrate at different pH
Procedure: Solubility of polymorph Forms I and III and the hydrate form of the compound of formula (I) was tested in aqueous conditions at different pH values.

[3] = Chemical stability of Form I on storage (HPLC, visual inspection)
Procedure: Chemical stability of Form I was tested in different open storage conditions for periods of 1, 4 and 8 weeks: 40° C./75% RH; 50° C.; RT/<5% RH; RT/56% RH; RT/75% RH and 0.3da ICH high intensity light. The compound was analysed after storage by HPLC and by visual inspection.

[4] = Crystallographic stability of Form I on storage (TGA, DSC, XRPD, IR); design: key to IR: ±Ref: contain some small extra signals
Procedure: The stability of the crystal structure of polymorph Form I of the compound (I) was studied after storage of the compound in open conditions for a period of six weeks at room temperature (RT) under <5%, 56% and 75% relative humidity (RH) at 50° C., and at 40° C. and 75% RH.
The samples were analysed by TGA, DSC, XRPD and IR spectroscopy.

[5] = Adsorption and desorption of water at 25° C. (Form I)
Procedure: Adsorption and desorption of water at 25° C. at different conditions of relative humidity was investigated on about 10 mg Form I of compound of formula (I), by registering the weight change as a function of relative humidity.
During an initial drying step a weight loss of 0.05% was registered.

[6] = Stability of the hydrate form in aqueous suspension (XRPD, SEM); conditions: aqueous suspension 16 mg/ml
Procedure: Aqueous suspension of the compound of formula (I) 16 mg/ml was stored at about 4° C. up to 9 days. Samples were taken after 1, 2 and 9 days of storage. The suspensions were spread over a paper filter and dried at room temperature for 2 hours. The obtained materials were analysed by XRPD.
Moreover, the hydrate remained stable in the aqueous medium for at least 9 days (XRD not substantially changed).

[7] = Thermal conversions in DSC oven (XRPD)
Procedure: Form III or hydrate form were thermally treated in a DSC oven (heating rate 10° C./min) up to selected temperatures (isotherm for 1 min) using an open sample pan. The selected temperatures are for Form III: 110° C. and 170° C.; and for hydrate form: 70° C., 110° C. and 170° C. The polymorphic composition of the obtained fractions was measured by XRPD. Table 12 summarises XRPD patterns in DSC treated Form III. Table 13 summarises XRPD patterns in DSC treated hydrate

[8] = six weeks open storage, 40° C./75% RH
[9] = six weeks open storage, RT/56% RH
[10] = six weeks open storage, RT/75% RH
[11] = six weeks open storage, RT/<5% RH

Cn1cc(-c2ccc3nnc(C(F)(F)c4ccc5ncccc5c4)n3n2)cn1 [Form I, 6-{difluoro[6-(1-methyl-1H-pyrazol-4-yl)[1,2,4]triazolo[4,3-b]pyridazin-3-yl]methyl}quinoline]
Relative polymorph stability ([1]; from RT up to 70° C.): most stable polymorph
Solubility ([2]; aqueous medium, simulated gastric fluid, thermodynamic from solid, 0.01 HCl, read-out: Solubility): 0.1 mg/mL (≈ 265 µM)
Solubility ([2]; aqueous medium, simulated gastric fluid, thermodynamic from solid, 0.1 HCl, read-out: Solubility): 1.3 mg/mL (≈ 3450 µM)
Solubility ([2]; pH2): 0.43 mg/mL (≈ 1140 µM)
Solubility ([2]; pH4): 0.005 mg/mL (≈ 13.3 µM)
Solubility ([2]; pH6): 0.003 mg/mL (≈ 7.95 µM)
Solubility ([2]; pH8): 0.004 mg/mL (≈ 10.6 µM)
Solubility ([2]; pH10): 0.003 mg/mL (≈ 7.95 µM)
HPLC Sum of impurities ([3]; 0.3da ICH light, 1 w): 0.55 w/w %
Appearance ([3]; 0.3da ICH light, 1 week): slightly yellow
HPLC Sum of impurities ([3]; 40° C./75% RH, 1 w): 0.51 w/w %
Appearance ([3]; 40° C./75% RH, 1 week): slightly yellow
HPLC Sum of impurities ([3]; 40° C./75% RH, 4 w): 0.66 w/w %
Appearance ([3]; 40° C./75% RH, 4 weeks): slightly yellow
HPLC Sum of impurities ([3]; 40° C./75% RH, 8 w): 0.54 w/w %
Appearance ([3]; 40° C./75% RH, 8 weeks): slightly yellow
HPLC Sum of impurities ([3]; 50° C., 1 w): 0.56 w/w %
Appearance ([3]; 50° C., 1 week): slightly yellow
HPLC Sum of impurities ([3]; 50° C., 4 w): 0.59 w/w %
Appearance ([3]; 50° C., 4 weeks): slightly yellow
HPLC Sum of impurities ([3]; 50° C., 8 w): 0.54 w/w %
Appearance ([3]; 50° C., 8 weeks): slightly yellow
HPLC Sum of impurities ([3]; RT/56% RH, 4 w): 0.53 w/w %
Appearance ([3]; RT/56% RH, 4 weeks): slightly yellow
HPLC Sum of impurities ([3]; RT/56% RH, 8 w): 0.53 w/w %
Appearance ([3]; RT/56% RH, 8 weeks): slightly yellow
HPLC Sum of impurities ([3]; RT/75% RH, 4 w): 0.53 w/w %
Appearance ([3]; RT/75% RH, 4 weeks): slightly yellow
HPLC Sum of impurities ([3]; RT/75% RH, 8 w): 0.77 w/w %
Appearance ([3]; RT/75% RH, 8 weeks): slightly yellow
HPLC Sum of impurities ([3]; RT/<5% RH, 4 w): 0.62 w/w %
Appearance ([3]; RT/<5% RH, 4 weeks): slightly yellow
HPLC Sum of impurities ([3]; RT/<5% RH, 8 w): 0.53 w/w %
Appearance ([3]; RT/<5% RH, 8 weeks): slightly yellow
HPLC Sum of impurities ([3]; Reference, 1 w): 0.54 w/w %
Appearance ([3]; Reference, 1 week): slightly yellow
Chemical stability ([3]; all investigated conditions): chemically stable
DSC Max ([4]; 0 days): 201.0 °C
DSC ΔH ([4]; 0 days): 101 J/g
IR ([4]; 0 days): Cryst., Ref
TGA <100° C. ([4]; 0 days): 0.12%
TGA <240° C. ([4]; 0 days): 0.36%
XRD ([4]; 0 days): Cryst., Ref
Crystallographic stability ([4]; after storage under the different conditions): crystallographically stable
DSC Max [4, 8]: 200.5 °C
DSC ΔH [4, 8]: 119 J/g
IR [4, 8]: ~Ref (identical with Form I reference)
TGA <100° C. [4, 8]: 0.33%
TGA <240° C. [4, 8]: 0.48%
XRD [4, 8]: ~Ref (identical with Form I reference)
IR ([4]; six weeks open storage, 50° C.): ~Ref (identical with Form I reference)
TGA <100° C. ([4]; six weeks open storage, 50° C.): 0.31%
TGA <240° C. ([4]; six weeks open storage, 50° C.): 0.57%
XRD ([4]; six weeks open storage, 50° C.): ~Ref (identical with Form I reference)
DSC Max [4, 9]: 200.4 °C
DSC ΔH [4, 9]: 120 J/g
IR [4, 9]: ±Ref
TGA <100° C. [4, 9]: 0.58%
TGA <240° C. [4, 9]: 0.8%
XRD [4, 9]: ~Ref (identical with Form I reference)
DSC Max [4, 10]: 200.1 °C
DSC ΔH [4, 10]: 121 J/g
IR [4, 10]: ±Ref
TGA <100° C. [4, 10]: 0.25%
TGA <240° C. [4, 10]: 0.57%
XRD [4, 10]: ~Ref (identical with Form I reference)
DSC Max [4, 11]: 200.1 °C
DSC ΔH [4, 11]: 124 J/g
IR [4, 11]: ~Ref (identical with Form I reference)
TGA <100° C. [4, 11]: 0.74%
TGA <240° C. [4, 11]: 0.75%
XRD [4, 11]: ~Ref (identical with Form I reference)
Weight loss during initial drying step ([5]; about 10 mg): 0.05%
Water adsorbed by dry product ([5]; depending on the atmospheric humidity): up to 0.5%
Hygroscopic behaviour ([5]; different relative humidity): no hygroscopic behaviour

Cn1cc(-c2ccc3nnc(C(F)(F)c4ccc5ncccc5c4)n3n2)cn1 [mixture of Form III and Form I]
Polymorphic composition (XRPD) after slurry ([1]; 2-propanol, 70° C.): I
Polymorphic composition (XRPD) after slurry ([1]; 2-propanol, RT): I
Polymorphic composition (XRPD) after slurry ([1]; ethanol/water (8/2, v/v), 70° C., low amount of product): I*
Polymorphic composition (XRPD) after slurry ([1]; ethanol/water (8/2, v/v), RT): I
XRD patterns of the stored suspensions ([6]; 4° C., 1 day, 2 days and 9 days): compatible with those of the hydrate form

Cn1cc(-c2ccc3nnc(C(F)(F)c4ccc5ncccc5c4)n3n2)cn1 [hydrate, 6-{difluoro[6-(1-methyl-1H-pyrazol-4-yl)[1,2,4]triazolo[4,3-b]pyridazin-3-yl]methyl}quinoline]
Solubility ([2]; 0.01 HCl): 0.056 mg/mL
Solubility ([2]; 0.1 HCl): 0.81 mg/mL
Solubility ([2]; pH2): 0.065 mg/mL
Solubility ([2]; pH4): 0.002 mg/mL
Solubility ([2]; pH6): 0.001 mg/mL
Solubility ([2]; pH8): 0.001 mg/mL
Solubility ([2]; pH10): 0.001 mg/mL
Time hydrate remained stable in the aqueous medium (XRD not substantially changed) ([6]; about 4° C.): at least 9 days
XRPD measured composition ([7]; DSC treated hydrate, up to 70° C.): hydrate + Form III
XRPD measured composition ([7]; DSC treated hydrate, up to 110° C.): Form III
XRPD measured composition ([7]; DSC treated hydrate, up to 170° C.): mainly Form I
XRPD measured composition ([7]; starting hydrate): hydrate
